Measured values taken from ChEMBL document CHEMBL3120056 (Eur J Med Chem, 2014).
pIC50: −log10 of the molar value. Calls of active or inactive are those of the source. The calls are words filed in the database; no cut-off is given here.

Key:
Type in all cases: cell-based
[1] = target: T1, Somatostatin receptor type 2 (Homo sapiens, UniProt P30874); test: Agonist activity at T7-epitope-tagged human SST2A receptor expressed in HEK293 cells assessed as stimulation of receptor internalization at 1 uM after 30 mins by immunofluorescence microscopic analysis
T1 sequence (P30874 whole entry): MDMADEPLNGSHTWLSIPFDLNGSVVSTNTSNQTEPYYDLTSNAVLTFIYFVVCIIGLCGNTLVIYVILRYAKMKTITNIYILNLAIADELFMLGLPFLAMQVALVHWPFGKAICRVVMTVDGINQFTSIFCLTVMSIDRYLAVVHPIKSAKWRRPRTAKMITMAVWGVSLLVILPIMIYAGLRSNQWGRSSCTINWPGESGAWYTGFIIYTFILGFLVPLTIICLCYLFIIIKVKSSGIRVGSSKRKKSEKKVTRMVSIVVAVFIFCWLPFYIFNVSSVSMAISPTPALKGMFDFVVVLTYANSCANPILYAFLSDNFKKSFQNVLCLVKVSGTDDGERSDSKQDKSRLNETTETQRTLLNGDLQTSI

[2] = target: Somatostatin receptor type 5 (Homo sapiens, UniProt P35346); test: Displacement of [125I]-[LTT]-SS28 from human SST5 receptor expressed in HEK293 cells after 2 hrs by autoradiographic analysis
Somatostatin receptor type 5, sequence (P35346 whole entry): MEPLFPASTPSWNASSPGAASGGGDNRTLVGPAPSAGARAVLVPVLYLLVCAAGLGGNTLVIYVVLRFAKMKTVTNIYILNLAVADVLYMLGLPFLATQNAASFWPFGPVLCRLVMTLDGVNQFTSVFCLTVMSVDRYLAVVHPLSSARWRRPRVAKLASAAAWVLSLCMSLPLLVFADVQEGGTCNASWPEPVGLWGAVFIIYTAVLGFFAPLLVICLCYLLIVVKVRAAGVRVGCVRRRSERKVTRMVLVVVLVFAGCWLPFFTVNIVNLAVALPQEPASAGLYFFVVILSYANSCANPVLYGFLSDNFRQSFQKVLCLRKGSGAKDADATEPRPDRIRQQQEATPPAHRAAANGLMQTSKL

[3] = target: Somatostatin receptor type 3 (Homo sapiens, UniProt P32745); test: Displacement of [125I]-[LTT]-SS28 from human SST3 receptor expressed in Chinese hamster CCL-39 cells after 2 hrs by autoradiographic analysis
Somatostatin receptor type 3, sequence (P32745 whole entry): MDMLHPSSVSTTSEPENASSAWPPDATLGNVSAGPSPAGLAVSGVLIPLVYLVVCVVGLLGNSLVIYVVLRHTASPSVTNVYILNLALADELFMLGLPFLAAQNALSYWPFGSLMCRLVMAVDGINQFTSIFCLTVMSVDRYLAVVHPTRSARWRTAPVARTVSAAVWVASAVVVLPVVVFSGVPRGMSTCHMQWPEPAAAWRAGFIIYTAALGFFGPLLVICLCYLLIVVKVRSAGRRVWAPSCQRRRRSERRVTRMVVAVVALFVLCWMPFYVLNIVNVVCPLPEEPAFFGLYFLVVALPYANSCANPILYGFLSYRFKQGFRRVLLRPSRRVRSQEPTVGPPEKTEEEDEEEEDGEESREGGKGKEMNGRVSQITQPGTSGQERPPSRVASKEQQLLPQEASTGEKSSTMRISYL

[4] = target: Somatostatin receptor type 4 (Homo sapiens, UniProt P31391); test: Displacement of [125I]-[LTT]-SS28 from human SST4 receptor expressed in Chinese hamster CCL-39 cells after 2 hrs by autoradiographic analysis
Somatostatin receptor type 4, sequence (P31391 whole entry): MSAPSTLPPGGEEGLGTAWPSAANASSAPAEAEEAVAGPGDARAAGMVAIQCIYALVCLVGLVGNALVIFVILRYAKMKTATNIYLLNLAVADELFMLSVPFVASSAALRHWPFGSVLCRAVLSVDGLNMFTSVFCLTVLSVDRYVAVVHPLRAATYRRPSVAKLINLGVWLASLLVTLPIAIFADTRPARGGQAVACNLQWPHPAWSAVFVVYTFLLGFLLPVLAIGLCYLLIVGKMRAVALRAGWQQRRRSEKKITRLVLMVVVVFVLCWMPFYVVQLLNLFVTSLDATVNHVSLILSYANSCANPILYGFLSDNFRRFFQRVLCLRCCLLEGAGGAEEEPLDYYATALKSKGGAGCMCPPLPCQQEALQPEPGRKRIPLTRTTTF

[5] = target: Somatostatin receptor type 1 (Homo sapiens, UniProt P30872); test: Displacement of [125I]-[LTT]-SS28 from human SST1 receptor expressed in CHO cells after 2 hrs by autoradiographic analysis
Somatostatin receptor type 1, sequence (P30872 whole entry): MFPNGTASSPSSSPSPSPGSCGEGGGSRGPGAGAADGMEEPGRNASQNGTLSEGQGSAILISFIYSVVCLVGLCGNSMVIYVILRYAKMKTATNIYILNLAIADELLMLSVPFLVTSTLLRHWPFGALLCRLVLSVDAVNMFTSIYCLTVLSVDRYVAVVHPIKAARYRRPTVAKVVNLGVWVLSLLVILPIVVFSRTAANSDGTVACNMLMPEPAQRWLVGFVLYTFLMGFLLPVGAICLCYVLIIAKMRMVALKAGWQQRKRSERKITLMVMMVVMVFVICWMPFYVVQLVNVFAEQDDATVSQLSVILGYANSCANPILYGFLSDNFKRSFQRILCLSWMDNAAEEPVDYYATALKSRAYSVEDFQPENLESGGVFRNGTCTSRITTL

[6] = target: T1, Somatostatin receptor type 2; test: Displacement of [125I]-[LTT]-SS28 from human SST2 receptor expressed in Chinese hamster CCL-39 cells after 2 hrs by autoradiographic analysis

Question: With `C[C@@H](O)[C@@H]1NC(=O)[C@H](CCCCN)NC(=O)[C@@H](Cc2c[nH]c3ccccc23)NC(=O)[C@H](Cc2ccccc2)NC(=O)[C@H](Cc2ccccc2)NC(=O)[C@@H](NC(=O)[C@H](CCCNC(=N)N)NC(=O)COCCOCCNC(=O)CN2CCN(CC(=O)O)CCN(CC(=O)O)CCN(CC(=O)O)CC2)CSSC[C@@H](C(=O)O)NC(=O)[C@H](CO)NC(=O)[C@H](Cc2ccccc2)NC1=O` as the compound, how does the Activity [1] read?
Answer: Active

Question: What about the pIC50 [2] of the same compound?
Answer: 7.80

Question: What about the pIC50 [3] of the same compound?
Answer: 7.62

Question: What about the pIC50 [4] of the same compound?
Answer: 9.05

Question: What about the pIC50 [5] of the same compound?
Answer: 6.77

Question: What about the pIC50 [6] of the same compound?
Answer: 9.12

Question: Which Activity [1] does the source give for `CCCC[C@H](NC(=O)CNC(=O)[C@H](C)NC(=O)CN1CCN(CC(=O)O)CCN(CC(=O)O)CCN(CC(=O)O)CC1)C(=O)N[C@@H](CCCCN)C(=O)N[C@@H](CC(N)=O)C(=O)N[C@H]1CSSC[C@@H](C(=O)N[C@H](C(=O)N[C@@H](CO)C(=O)NCC(=O)O)[C@@H](C)O)NC(=O)[C@H]([C@@H](C)O)NC(=O)[C@H](CCCCN)NC(=O)[C@@H](Cc2c[nH]c3ccccc23)NC(=O)[C@H](Cc2ccccc2)NC1=O` here?
Answer: inactive

Question: And the pIC50 [2]?
Answer: < 6.00

Question: And the pIC50 [3]?
Answer: < 6.00

Question: And the pIC50 [4]?
Answer: < 6.00

Question: What about the pIC50 [5] of the same compound?
Answer: < 6.00

Question: What about the pIC50 [6] of the same compound?
Answer: < 6.00

Question: With `CCCC[C@H](NC(=O)CNC(=O)[C@H](C)NC(=O)CN1CCN(CC(=O)O)CCN(CC(=O)O)CCN(CC(=O)O)CC1)C(=O)N[C@@H](CCCCN)C(=O)N[C@@H](CC(N)=O)C(=O)N[C@H]1CSSC[C@@H](C(=O)N[C@H](C(=O)N[C@@H](CO)C(=O)NCC(=O)O)[C@@H](C)O)NC(=O)[C@H]([C@@H](C)O)NC(=O)[C@H](CCCCN)NC(=O)[C@@H](Cc2c[nH]c3ccccc23)NC(=O)[C@H](Cc2ccc(O)cc2)NC1=O` as the compound, how does the Activity [1] read?
Answer: inactive

Question: And the pIC50 [2]?
Answer: < 6.00

Question: What about the pIC50 [3] of the same compound?
Answer: < 6.00

Question: What about the pIC50 [4] of the same compound?
Answer: < 6.00

Question: And the pIC50 [5]?
Answer: < 6.00

Question: And the pIC50 [6]?
Answer: 6.02

Question: `C[C@H](NC(=O)CN1CCN(CC(=O)O)CCN(CC(=O)O)CCN(CC(=O)O)CC1)C(=O)NCC(=O)N[C@H]1CSSC[C@H](C(=O)O)NC(=O)[C@H](CO)NC(=O)[C@H]([C@@H](C)O)NC(=O)[C@H](Cc2ccccc2)NC(=O)[C@H]([C@@H](C)O)NC(=O)[C@H](CCCCN)NC(=O)[C@@H](Cc2c[nH]c3ccccc23)NC(=O)[C@H](Cc2ccccc2)NC(=O)[C@H](Cc2ccccc2)NC(=O)[C@H](CC(N)=O)NC(=O)[C@H](CCCNC(=N)N)NC1=O` was tested. Which Activity [1] did it give?
Answer: Active

Question: And the pIC50 [2]?
Answer: 7.60

Question: What about the pIC50 [3] of the same compound?
Answer: 7.80

Question: What about the pIC50 [4] of the same compound?
Answer: 8.55

Question: What about the pIC50 [5] of the same compound?
Answer: 7.42

Question: And the pIC50 [6]?
Answer: 8.80

Question: Which Activity [1] does the source give for `CCCC[C@H](NC(=O)CNC(=O)[C@H](C)NC(=O)CN1CCN(CC(=O)O)CCN(CC(=O)O)CCN(CC(=O)O)CC1)C(=O)N[C@@H](CCCCN)C(=O)N[C@@H]1CSSC[C@@H](C(=O)N[C@@H](CO)C(=O)NCC(=O)O)NC(=O)[C@H](Cc2ccccc2)NC(=O)[C@H]([C@@H](C)O)NC(=O)[C@H](CCCCN)NC(=O)[C@@H](Cc2c[nH]c3ccccc23)NC(=O)[C@H](Cc2ccccc2)NC(=O)[C@H](Cc2ccccc2)NC1=O` here?
Answer: inactive

Question: What about the pIC50 [2] of the same compound?
Answer: 7.43

Question: And the pIC50 [3]?
Answer: 7.01

Question: What about the pIC50 [4] of the same compound?
Answer: 8.27

Question: And the pIC50 [5]?
Answer: 7.74

Question: And the pIC50 [6]?
Answer: 7.30

Question: `CCCC[C@H](NC(=O)CNC(=O)[C@H](C)NC(=O)CN1CCN(CC(=O)O)CCN(CC(=O)O)CCN(CC(=O)O)CC1)C(=O)N[C@@H](CCCCN)C(=O)N[C@H]1CSSC[C@@H](C(=O)N[C@@H](CO)C(=O)NCC(=O)O)NC(=O)[C@H](Cc2ccccc2)NC(=O)[C@H]([C@@H](C)O)NC(=O)[C@H](CCCCN)NC(=O)[C@@H](Cc2c[nH]c3ccccc23)NC(=O)[C@H](Cc2ccccc2)NC(=O)[C@H](Cc2ccccc2)NC1=O` was tested. Which Activity [1] did it give?
Answer: Active

Question: And the pIC50 [2]?
Answer: 7.30

Question: What about the pIC50 [3] of the same compound?
Answer: 7.80

Question: What about the pIC50 [4] of the same compound?
Answer: 8.40

Question: And the pIC50 [5]?
Answer: 7.48

Question: And the pIC50 [6]?
Answer: 7.96

Question: What does the source list for `C[C@@H](O)[C@@H]1NC(=O)[C@H](CCCCN)NC(=O)[C@@H](Cc2c[nH]c3ccccc23)NC(=O)[C@H](Cc2ccccc2)NC(=O)[C@H](Cc2ccccc2)NC(=O)[C@@H](NC(=O)CNC(=O)COCCOCCNC(=O)CN2CCN(CC(=O)O)CCN(CC(=O)O)CCN(CC(=O)O)CC2)CSSC[C@@H](C(=O)O)NC(=O)[C@H](CO)NC(=O)[C@H](Cc2ccccc2)NC1=O`?
Answer: Activity [1]: Active; pIC50 [2]: 7.24; pIC50 [3]: 7.74; pIC50 [4]: 8.92; pIC50 [5]: 6.10; pIC50 [6]: 9.00
